Laboratory results taken from patent publication US7553864B2, “Compounds for the treatment of inflammatory disorders and microbial diseases” (Schering Corporation, priority 2005, dated 2009).

tested on: LpxC enzyme; assay: LpxC enzyme assay (RapidFire high-throughput mass spectrometry); format: biochemical; conditions: concentration 0.10 (unit not given)
Experimental: The standard LpxC assay consists of 0.2 nM LpxC enzyme, 1.0 μM UDP-3-O—(R-3-hydroxymyristoyl)-N-acetylglucosamine, and test compound, in assay buffer and 2% DMSO. Assay buffer is comprised of 25 mM HEPES, pH 7.3, 150 mM NaCl, 2.0 mM DTT, and 0.01% BSA. The enzyme reaction is carried out in a 96-well assay plate, in a final volume of 102 μL. Solutions of test compounds are prepared in 100% DMSO. Reaction additions, in order, are (1) 2.0 μL compound solution, (2) 80 μL of assay buffer, (3) 10 μL of 10 μM UDP-3-O—(R-3-hydroxymyristoyl)-N-acetylglucosamine (in assay buffer) and, (4) 10 μL of LpxC enzyme (20 nM in assay buffer) to initiate the reaction. In positive control reactions, addition (1) has 2.0 μL of 100% DMSO (without compound); these reactions are used as the total signal (TSB) value. Reactions are incubated at room temperature for 60 minutes when 10 μL of 1 N HCl is added to stop the reaction. The plate is shaken by hand for 10 seconds to ensure complete quenching. Assay plates are sealed with foil tape, and stored at −80° C. for 24-48 hr prior to analysis.
The concentrations of substrate and product in the reaction mixtures are determined with BioTrove's proprietary RapidFire™ high-throughput mass spectrometry (HTMS). Assay mixtures are partially purified with reverse phase chromatography, where they are washed with water containing 5 mM ammonium formate and eluted onto the mass spectrometer in 80% acetonitrile, 20% water, and 5 mM ammonium formate. The mass spectrometry peak areas of the substrate and product are measured to determine the concentration of these analytes. The assay signal is the percentage of substrate that is converted to product. Percent inhibition, % I, in test samples is determined from the following equation: […]

Row | Structure (SMILES) | LpxC enzyme assay rating (% inhibition at indicated concentrations)
1 | CNC(=O)[C@H](O)[C@@H](O)C(=O)N1CCN(c2cccc3ccccc23)CC1 [Compound 29] | C (less than 10% inhibition)
2 | CNC(=O)[C@H](O)[C@@H](O)C(=O)N1CCN(c2ccc(-c3ccccc3)cc2)CC1 [Compound 30] | C (less than 10% inhibition)
3 | CNC(=O)[C@H](O)[C@@H](O)C(=O)N1CCN(c2cccc(-c3ccccc3)c2)CC1 [Compound 31] | C (less than 10% inhibition)
4 | CCCCc1ccc(NC(=O)[C@H](O)[C@@H](O)C(=O)NC)cc1 [Compound 32] | B (10-30% inhibition)
5 | CCCc1ccc(NC(=O)[C@H](O)[C@@H](O)C(=O)NC)cc1 [Compound 33] | C (less than 10% inhibition)

same assay, conditions: concentration 0.20 (unit not given)

Row | Structure (SMILES) | LpxC enzyme assay rating (% inhibition at indicated concentrations)
6 | CNC(=O)[C@H](O)[C@@H](O)C(=O)N1CCN(c2cccc3ccccc23)CC1 [Compound 29] | C (less than 10% inhibition)
7 | CNC(=O)[C@H](O)[C@@H](O)C(=O)N1CCN(c2ccc(-c3ccccc3)cc2)CC1 [Compound 30] | B (10-30% inhibition)
8 | CNC(=O)[C@H](O)[C@@H](O)C(=O)N1CCN(c2cccc(-c3ccccc3)c2)CC1 [Compound 31] | B (10-30% inhibition)
9 | CCCCc1ccc(NC(=O)[C@H](O)[C@@H](O)C(=O)NC)cc1 [Compound 32] | B (10-30% inhibition)
10 | CCCc1ccc(NC(=O)[C@H](O)[C@@H](O)C(=O)NC)cc1 [Compound 33] | C (less than 10% inhibition)

same assay, conditions: concentration 0.39 (unit not given)

Row | Structure (SMILES) | LpxC enzyme assay rating (% inhibition at indicated concentrations)
11 | CNC(=O)[C@H](O)[C@@H](O)C(=O)N1CCN(c2cccc3ccccc23)CC1 [Compound 29] | C (less than 10% inhibition)
12 | CNC(=O)[C@H](O)[C@@H](O)C(=O)N1CCN(c2ccc(-c3ccccc3)cc2)CC1 [Compound 30] | B (10-30% inhibition)
13 | CNC(=O)[C@H](O)[C@@H](O)C(=O)N1CCN(c2cccc(-c3ccccc3)c2)CC1 [Compound 31] | C (less than 10% inhibition)
14 | CCCCc1ccc(NC(=O)[C@H](O)[C@@H](O)C(=O)NC)cc1 [Compound 32] | B (10-30% inhibition)
15 | CCCc1ccc(NC(=O)[C@H](O)[C@@H](O)C(=O)NC)cc1 [Compound 33] | C (less than 10% inhibition)

same assay, conditions: concentration 0.78 (unit not given)

Row | Structure (SMILES) | LpxC enzyme assay rating (% inhibition at indicated concentrations)
16 | CNC(=O)[C@H](O)[C@@H](O)C(=O)N1CCN(c2cccc3ccccc23)CC1 [Compound 29] | C (less than 10% inhibition)
17 | CNC(=O)[C@H](O)[C@@H](O)C(=O)N1CCN(c2ccc(-c3ccccc3)cc2)CC1 [Compound 30] | C (less than 10% inhibition)
18 | CNC(=O)[C@H](O)[C@@H](O)C(=O)N1CCN(c2cccc(-c3ccccc3)c2)CC1 [Compound 31] | B (10-30% inhibition)
19 | CCCCc1ccc(NC(=O)[C@H](O)[C@@H](O)C(=O)NC)cc1 [Compound 32] | B (10-30% inhibition)
20 | CCCc1ccc(NC(=O)[C@H](O)[C@@H](O)C(=O)NC)cc1 [Compound 33] | C (less than 10% inhibition)

same assay, conditions: concentration 1.56 (unit not given)

Row | Structure (SMILES) | LpxC enzyme assay rating (% inhibition at indicated concentrations)
21 | CNC(=O)[C@H](O)[C@@H](O)C(=O)N1CCN(c2cccc3ccccc23)CC1 [Compound 29] | B (10-30% inhibition)
22 | CNC(=O)[C@H](O)[C@@H](O)C(=O)N1CCN(c2ccc(-c3ccccc3)cc2)CC1 [Compound 30] | C (less than 10% inhibition)
23 | CNC(=O)[C@H](O)[C@@H](O)C(=O)N1CCN(c2cccc(-c3ccccc3)c2)CC1 [Compound 31] | B (10-30% inhibition)
24 | CCCCc1ccc(NC(=O)[C@H](O)[C@@H](O)C(=O)NC)cc1 [Compound 32] | C (less than 10% inhibition)
25 | CCCc1ccc(NC(=O)[C@H](O)[C@@H](O)C(=O)NC)cc1 [Compound 33] | B (10-30% inhibition)

same assay, conditions: concentration 3.13 (unit not given)

Row | Structure (SMILES) | LpxC enzyme assay rating (% inhibition at indicated concentrations)
26 | CNC(=O)[C@H](O)[C@@H](O)C(=O)N1CCN(c2cccc3ccccc23)CC1 [Compound 29] | B (10-30% inhibition)
27 | CNC(=O)[C@H](O)[C@@H](O)C(=O)N1CCN(c2ccc(-c3ccccc3)cc2)CC1 [Compound 30] | B (10-30% inhibition)
28 | CNC(=O)[C@H](O)[C@@H](O)C(=O)N1CCN(c2cccc(-c3ccccc3)c2)CC1 [Compound 31] | B (10-30% inhibition)
29 | CCCCc1ccc(NC(=O)[C@H](O)[C@@H](O)C(=O)NC)cc1 [Compound 32] | B (10-30% inhibition)
30 | CCCc1ccc(NC(=O)[C@H](O)[C@@H](O)C(=O)NC)cc1 [Compound 33] | B (10-30% inhibition)

same assay, conditions: concentration 6.25 (unit not given)

Row | Structure (SMILES) | LpxC enzyme assay rating (% inhibition at indicated concentrations)
31 | CNC(=O)[C@H](O)[C@@H](O)C(=O)N1CCN(c2cccc3ccccc23)CC1 [Compound 29] | B (10-30% inhibition)
32 | CNC(=O)[C@H](O)[C@@H](O)C(=O)N1CCN(c2ccc(-c3ccccc3)cc2)CC1 [Compound 30] | B (10-30% inhibition)
33 | CNC(=O)[C@H](O)[C@@H](O)C(=O)N1CCN(c2cccc(-c3ccccc3)c2)CC1 [Compound 31] | C (less than 10% inhibition)
34 | CCCCc1ccc(NC(=O)[C@H](O)[C@@H](O)C(=O)NC)cc1 [Compound 32] | C (less than 10% inhibition)
35 | CCCc1ccc(NC(=O)[C@H](O)[C@@H](O)C(=O)NC)cc1 [Compound 33] | B (10-30% inhibition)

same assay, conditions: concentration 12.50 (unit not given)

Row | Structure (SMILES) | LpxC enzyme assay rating (% inhibition at indicated concentrations)
36 | CNC(=O)[C@H](O)[C@@H](O)C(=O)N1CCN(c2cccc3ccccc23)CC1 [Compound 29] | B (10-30% inhibition)
37 | CNC(=O)[C@H](O)[C@@H](O)C(=O)N1CCN(c2ccc(-c3ccccc3)cc2)CC1 [Compound 30] | B (10-30% inhibition)
38 | CNC(=O)[C@H](O)[C@@H](O)C(=O)N1CCN(c2cccc(-c3ccccc3)c2)CC1 [Compound 31] | B (10-30% inhibition)
39 | CCCCc1ccc(NC(=O)[C@H](O)[C@@H](O)C(=O)NC)cc1 [Compound 32] | B (10-30% inhibition)
40 | CCCc1ccc(NC(=O)[C@H](O)[C@@H](O)C(=O)NC)cc1 [Compound 33] | C (less than 10% inhibition)

same assay, conditions: concentration 25 (unit not given)

Row | Structure (SMILES) | LpxC enzyme assay rating (% inhibition at indicated concentrations)
41 | CNC(=O)[C@H](O)[C@@H](O)C(=O)N1CCN(c2cccc3ccccc23)CC1 [Compound 29] | B (10-30% inhibition)
42 | CNC(=O)[C@H](O)[C@@H](O)C(=O)N1CCN(c2ccc(-c3ccccc3)cc2)CC1 [Compound 30] | B (10-30% inhibition)
43 | CNC(=O)[C@H](O)[C@@H](O)C(=O)N1CCN(c2cccc(-c3ccccc3)c2)CC1 [Compound 31] | B (10-30% inhibition)
44 | CCCCc1ccc(NC(=O)[C@H](O)[C@@H](O)C(=O)NC)cc1 [Compound 32] | B (10-30% inhibition)
45 | CCCc1ccc(NC(=O)[C@H](O)[C@@H](O)C(=O)NC)cc1 [Compound 33] | C (less than 10% inhibition)

same assay, conditions: concentration 50 (unit not given)

Row | Structure (SMILES) | LpxC enzyme assay rating (% inhibition at indicated concentrations)
46 | CNC(=O)[C@H](O)[C@@H](O)C(=O)N1CCN(c2cccc3ccccc23)CC1 [Compound 29] | B (10-30% inhibition)
47 | CNC(=O)[C@H](O)[C@@H](O)C(=O)N1CCN(c2ccc(-c3ccccc3)cc2)CC1 [Compound 30] | A (greater than 30% inhibition)
48 | CNC(=O)[C@H](O)[C@@H](O)C(=O)N1CCN(c2cccc(-c3ccccc3)c2)CC1 [Compound 31] | B (10-30% inhibition)
49 | CCCCc1ccc(NC(=O)[C@H](O)[C@@H](O)C(=O)NC)cc1 [Compound 32] | B (10-30% inhibition)
50 | CCCc1ccc(NC(=O)[C@H](O)[C@@H](O)C(=O)NC)cc1 [Compound 33] | C (less than 10% inhibition)
